Laboratory results reported in patent publication US20230416248A1, “COMPOUNDS AND USES THEREOF” (Foghorn Therapeutics Inc., priority 2020, published 2023).

What was measured:
BRM = biological target: T1, BRM (Homo sapiens, UniProt P51531); assay: ATPase catalytic activity of BRM, ADP-Glo in vitro biochemical assay; conditions: for IC50: ADP-Glo ATPase assay, 30 nM BRM, 400 μM ATP; for Ratio*: ratio BRG1 IC50 / BRM IC50
T1 construct: made in house; host or cells: High Five insect cells
Outline: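 Recombinant BRM (30 nM) hydrolysed 400 μM ATP with 20 nM salmon sperm DNA in pH 8 Tris buffer containing 20 mM MgCl2, 50 mM NaCl, 0.1% Tween-20 and 1 mM DTT, 1 h at room temperature. ADP formed was quantified by ADP-Glo luminescence.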

BRG-1 = biological target: T2, BRG-1 (Homo sapiens, UniProt P51532); assay: ATPase catalytic activity of BRG-1, ADP-Glo in vitro biochemical assay; conditions: ADP-Glo ATPase assay, 30 nM BRG-1, 400 μM ATP; read-out: BRG1 IC50
T2 construct: made in house; host or cells: High Five insect cells
T2 sequence (P51532 whole entry): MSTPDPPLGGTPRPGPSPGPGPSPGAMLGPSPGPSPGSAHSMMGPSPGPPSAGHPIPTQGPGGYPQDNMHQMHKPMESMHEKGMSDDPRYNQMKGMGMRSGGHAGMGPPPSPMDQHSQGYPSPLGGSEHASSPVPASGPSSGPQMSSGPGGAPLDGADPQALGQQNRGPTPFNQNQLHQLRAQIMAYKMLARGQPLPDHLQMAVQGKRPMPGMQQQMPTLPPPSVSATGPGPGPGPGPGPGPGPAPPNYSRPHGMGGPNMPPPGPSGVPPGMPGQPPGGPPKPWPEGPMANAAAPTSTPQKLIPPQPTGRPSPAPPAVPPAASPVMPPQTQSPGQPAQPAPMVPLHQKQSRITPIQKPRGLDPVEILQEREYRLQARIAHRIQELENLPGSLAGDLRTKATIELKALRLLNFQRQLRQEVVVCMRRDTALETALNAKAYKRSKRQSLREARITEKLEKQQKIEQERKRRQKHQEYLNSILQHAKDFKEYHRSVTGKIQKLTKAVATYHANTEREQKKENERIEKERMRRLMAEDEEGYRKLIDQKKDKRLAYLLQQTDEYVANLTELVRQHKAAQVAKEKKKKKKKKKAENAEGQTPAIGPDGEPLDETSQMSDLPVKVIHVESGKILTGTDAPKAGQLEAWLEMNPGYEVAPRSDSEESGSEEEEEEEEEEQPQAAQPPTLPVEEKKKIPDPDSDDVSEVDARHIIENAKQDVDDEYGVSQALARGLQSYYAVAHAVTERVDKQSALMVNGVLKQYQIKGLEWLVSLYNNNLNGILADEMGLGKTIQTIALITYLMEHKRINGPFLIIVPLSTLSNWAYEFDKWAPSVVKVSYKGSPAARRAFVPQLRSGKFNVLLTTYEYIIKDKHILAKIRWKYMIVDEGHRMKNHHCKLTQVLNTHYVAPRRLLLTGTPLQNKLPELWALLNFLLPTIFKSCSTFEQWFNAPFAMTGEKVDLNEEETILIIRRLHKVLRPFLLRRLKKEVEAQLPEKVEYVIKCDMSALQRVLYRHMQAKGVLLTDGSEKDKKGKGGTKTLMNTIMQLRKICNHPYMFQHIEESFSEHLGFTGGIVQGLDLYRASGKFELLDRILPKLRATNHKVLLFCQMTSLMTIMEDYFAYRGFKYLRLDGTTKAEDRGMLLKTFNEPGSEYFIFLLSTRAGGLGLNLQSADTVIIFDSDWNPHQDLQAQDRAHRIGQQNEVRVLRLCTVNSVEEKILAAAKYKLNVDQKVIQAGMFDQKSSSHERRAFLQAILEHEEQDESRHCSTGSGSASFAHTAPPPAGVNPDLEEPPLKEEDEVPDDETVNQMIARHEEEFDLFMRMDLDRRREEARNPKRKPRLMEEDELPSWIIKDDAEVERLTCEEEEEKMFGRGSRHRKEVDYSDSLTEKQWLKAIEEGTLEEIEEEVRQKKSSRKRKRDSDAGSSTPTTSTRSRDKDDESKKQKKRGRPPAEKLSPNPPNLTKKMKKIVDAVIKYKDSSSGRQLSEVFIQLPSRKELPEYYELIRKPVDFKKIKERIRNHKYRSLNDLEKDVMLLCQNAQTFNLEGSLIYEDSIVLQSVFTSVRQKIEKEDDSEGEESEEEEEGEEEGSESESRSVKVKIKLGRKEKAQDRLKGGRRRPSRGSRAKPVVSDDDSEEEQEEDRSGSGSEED
Outline: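 Biochemical ADP-Glo assay, BRG-1. Post-reaction: ATP depletion reagent, 40 min RT; ADP→ATP conversion/detection reagent, 60 min RT; luminescence read on plate luminometer.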

T1 sequence (P51531 whole entry): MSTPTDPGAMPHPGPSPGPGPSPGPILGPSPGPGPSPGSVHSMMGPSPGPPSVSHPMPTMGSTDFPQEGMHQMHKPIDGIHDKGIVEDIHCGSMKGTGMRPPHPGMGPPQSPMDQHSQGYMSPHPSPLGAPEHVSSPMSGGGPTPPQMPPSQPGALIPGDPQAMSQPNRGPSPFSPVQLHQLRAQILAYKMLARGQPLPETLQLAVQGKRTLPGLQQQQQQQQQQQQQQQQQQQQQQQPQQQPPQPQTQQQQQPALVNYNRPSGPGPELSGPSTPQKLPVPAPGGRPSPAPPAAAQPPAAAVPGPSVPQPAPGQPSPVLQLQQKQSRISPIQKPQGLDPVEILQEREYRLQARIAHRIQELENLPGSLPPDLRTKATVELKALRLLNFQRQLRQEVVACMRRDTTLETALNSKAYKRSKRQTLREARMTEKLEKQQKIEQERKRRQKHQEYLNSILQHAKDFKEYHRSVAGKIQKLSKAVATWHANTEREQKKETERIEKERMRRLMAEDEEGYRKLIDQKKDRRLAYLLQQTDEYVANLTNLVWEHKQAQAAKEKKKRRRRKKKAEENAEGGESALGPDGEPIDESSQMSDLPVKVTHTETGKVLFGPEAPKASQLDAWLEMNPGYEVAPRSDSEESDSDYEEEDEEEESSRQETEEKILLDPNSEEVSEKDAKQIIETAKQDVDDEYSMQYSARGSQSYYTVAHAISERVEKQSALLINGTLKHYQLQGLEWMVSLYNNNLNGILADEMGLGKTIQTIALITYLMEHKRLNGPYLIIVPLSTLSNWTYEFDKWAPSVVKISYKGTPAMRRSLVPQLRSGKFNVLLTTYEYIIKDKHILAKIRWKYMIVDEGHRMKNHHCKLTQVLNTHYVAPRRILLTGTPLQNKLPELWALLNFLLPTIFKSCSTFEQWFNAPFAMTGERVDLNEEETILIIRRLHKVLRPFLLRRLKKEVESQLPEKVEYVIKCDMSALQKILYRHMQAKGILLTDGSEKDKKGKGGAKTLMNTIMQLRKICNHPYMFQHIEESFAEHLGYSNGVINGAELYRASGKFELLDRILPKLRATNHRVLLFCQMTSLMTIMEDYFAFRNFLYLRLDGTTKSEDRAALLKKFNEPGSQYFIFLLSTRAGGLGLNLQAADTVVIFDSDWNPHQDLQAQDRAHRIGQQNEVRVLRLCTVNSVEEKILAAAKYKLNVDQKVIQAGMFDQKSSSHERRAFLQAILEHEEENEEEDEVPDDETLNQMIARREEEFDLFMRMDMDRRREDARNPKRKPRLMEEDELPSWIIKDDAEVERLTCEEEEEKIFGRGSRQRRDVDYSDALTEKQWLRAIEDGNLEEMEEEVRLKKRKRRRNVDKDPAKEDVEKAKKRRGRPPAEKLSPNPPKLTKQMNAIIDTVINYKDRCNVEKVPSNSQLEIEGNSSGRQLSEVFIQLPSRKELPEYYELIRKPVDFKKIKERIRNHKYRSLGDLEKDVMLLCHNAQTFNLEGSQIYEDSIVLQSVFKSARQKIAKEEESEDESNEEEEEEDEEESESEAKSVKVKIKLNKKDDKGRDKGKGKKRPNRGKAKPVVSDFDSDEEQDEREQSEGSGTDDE

SMILES	IC50 (BRM)	Ratio* (BRM)	IC50 (BRG-1)
CO[C@H](C)COc1ccc2c(c1)N(c1ccc3cnc(CNC(=O)c4ccc5c(c4)S(=O)(=O)CCOC5)cc3n1)CCC2 [Compound 705]	4.3 nM	13.63	58.1 nM
CO[C@@H](C)COc1ccc2c(c1)N(c1ccc3cnc(CNC(=O)c4ccc5c(c4)S(=O)(=O)CCOC5)cc3n1)CCC2 [Compound 706]	5 nM	9.39	46.9 nM
C[C@H]1COCc2ccc(C(=O)NCc3cc4nc(-c5cccc(N6C[C@H]7COC[C@H]7C6)n5)ccc4cn3)cc2S1(=O)=O [Compound 709]	37.6 nM	11.57	436 nM
COCc1ccc2c(c1F)N(c1ccc3cnc(CNC(=O)c4ccc5c(c4)S(=O)(=O)CCOC5)cc3n1)CCC2 [Compound 711]	9.3 nM	27.53	255 nM
COc1cc2c(cc1F)CCCN2c1ccc2cnc(CNC(=O)c3ccc4c(c3)S(=O)(=O)CCOC4)cc2n1 [Compound 714]	54.9 nM		667 nM
COc1ccc(F)c2c1CCCN2c1ccc2cnc(CNC(=O)c3ccc4c(c3)S(=O)(=O)CCOC4)cc2n1 [Compound 718]	10.5 nM	9.44	99.6 nM
O=C(NCc1cc2nc(N3CCOc4ccc(C5CCC5)nc43)ccc2cn1)c1ccc2c(c1)S(=O)(=O)CCOC2 [Compound 722]	8.8 nM	81.47	716 nM
CS(=O)(=O)c1cc(C(=O)NCc2cc3nc(N4CCCc5cc(C6CC6)cnc54)ccc3cn2)cnc1C(F)F [Compound 724]	122 nM	18.41	2250 nM
O=C(NCc1cc2nc(N3CCCc4cc(C5CC5)ncc43)ccc2cn1)c1ccc2c(c1)S(=O)(=O)CCOC2 [Compound 725]	26.8 nM	10.95	294 nM
O=C(NCc1cc2nc(N3CCCc4cc(F)c(OCC5COC5)cc43)ccc2cn1)c1ccc2c(c1)S(=O)(=O)CCOC2 [Compound 726]	24.7 nM	11.83	292 nM
O=C(NCc1cc2nc(N3CCCc4ccc(C5CCC5)nc43)ccc2cn1)c1ccc2c(c1)S(=O)(=O)CCOC2 [Compound 730]	16.4 nM	49.65	814 nM
COc1cccc2c1CCCN2c1ccc2cnc(CNC(=O)c3cnc4c(c3)S(=O)(=O)[C@@H](C)COC4)cc2n1 [Compound 733]	9.4 nM	8.96	84.2 nM
O=C(NCc1cc2nc(N3CCCc4ccc(OCC5CCO5)cc43)ccc2cn1)c1ccc2c(c1)S(=O)(=O)CCOC2 (centres unmarked) [Compound 735]	8.2 nM	13.49	110 nM
C[C@H]1COCc2ccc(C(=O)NCc3cc4nc(N5CCOc6cc(F)cnc65)ccc4cn3)cc2S1(=O)=O [Compound 738]	13.2 nM	32.33	428 nM
[2H]C1([2H])OC([2H])([2H])[C@H](C)S(=O)(=O)c2cc(C(=O)NCc3cc4nc(N5CCOc6cc(C)cnc65)ccc4cn3)ccc21 [Compound 741]	6.6 nM	14.12	93.4 nM
O=C(NCc1cc2nc(N3CCn4ncc(C5CC5)c4C3)ccc2cn1)c1ccc2c(c1)S(=O)(=O)CCOC2 [Compound 744]	432 nM	9.13	3940 nM
O=C(NCc1cc2nc(N3CCCc4ccc(OCC5(F)COC5)cc43)ccc2cn1)c1ccc2c(c1)S(=O)(=O)CCOC2 [Compound 745]	4.5 nM	6.27	27.9 nM
O=C(NCc1cc2nc(N3CCCc4ccc(OC5CC5)nc43)ccc2cn1)c1ccc2c(c1)S(=O)(=O)CCOC2 [Compound 746]	22.2 nM	25.51	567 nM
O=C(NCc1cc2nc(N3CCCc4ccc(OCC5CCCO5)cc43)ccc2cn1)c1ccc2c(c1)S(=O)(=O)CCOC2 (centres unmarked) [Compound 747]	8.8 nM	13.42	118 nM
Cc1ccc2c(c1)OCCN2c1ccc2cnc(CNC(=O)c3cnc4c(c3)S(=O)(=O)[C@@H](C)COC4)cc2n1 [Compound 749]	12.6 nM	16.64	209 nM
COc1cc(F)cc2c1CCCN2c1ccc2cnc(CNC(=O)c3ccc4c(c3)S(=O)(=O)CCOC4)cc2n1 [Compound 750]	4 nM	4.62	18.3 nM

Results, then the compound that gave them:

IC50 (BRM)	Ratio* (BRM)	IC50 (BRG-1)	SMILES
91.1 nM	23.18	2110 nM	C[C@@H]1CN(c2cccc(-c3ccc4cnc(CNC(=O)c5ccc6c(c5)S(=O)(=O)CCC5(CC5)O6)cc4n3)n2)C[C@H](C)O1 [Compound 704]
54.6 nM	4.84	264 nM	C[C@@H]1CN(c2ccnc(-c3ccc4cnc(CNC(=O)c5ccc6c(c5)S(=O)(=O)CCOC6)cc4c3)n2)C[C@H](C)O1 [Compound 707]
52.9 nM	17.15	907 nM	C[C@@H]1CN(c2ccnc(-c3ccc4cnc(CNC(=O)c5ccc6c(c5)S(=O)(=O)[C@@H](C)COC6)cc4c3)n2)C[C@H](C)O1 [Compound 708]
29.8 nM	5.13	153 nM	C[C@@H]1CN(c2cccc(-c3cnc4cnc(CNC(=O)c5ccc6c(c5)S(=O)(=O)[C@@H](C)COC6)cc4n3)n2)C[C@H](C)O1 [Compound 710]
8.6 nM	11.90	102 nM	CC1(c2cnc3c(c2)OCCN3c2ccc3cnc(CNC(=O)c4ccc5c(c4)S(=O)(=O)CCOC5)cc3n2)CC1 [Compound 712]
45.9 nM	21.51	987 nM	CC1(c2ccc3c(n2)N(c2ccc4cnc(CNC(=O)c5ccc6c(c5)S(=O)(=O)CCOC6)cc4n2)CCO3)CC1 [Compound 713]
5.4 nM	4.12	22.1 nM	[2H]C1([2H])OC([2H])([2H])[C@H](C)S(=O)(=O)c2cc(C(=O)NCc3cc4nc(-c5cccc(N6C[C@@H](C)O[C@@H](C)C6)n5)ccc4cn3)ccc21 [Compound 715]
1730 nM	2.75	4770 nM	COCC1CN(c2ccc3cnc(CNC(=O)c4ccc5c(c4)S(=O)(=O)CCOC5)cc3n2)c2ccccc2O1 (centres unmarked) [Compound 716]
77 nM	5.61	432 nM	[2H]C1([2H])OC([2H])([2H])[C@@H](C)S(=O)(=O)c2cc(C(=O)NCc3cc4nc(-c5cccc(N6C[C@@H](C)O[C@@H](C)C6)n5)ccc4cn3)ccc21 [Compound 717]
42.6 nM	13.62	580 nM	COc1cc2c(cn1)N(c1ccc3cnc(CNC(=O)c4ccc5c(c4)S(=O)(=O)CCOC5)cc3n1)CCC2 [Compound 719]
43.6 nM	5.30	231 nM	O=C(NCc1cc2nc(N3CCc4cc(C(F)F)cnc43)ccc2cn1)c1ccc2c(c1)S(=O)(=O)CCOC2 [Compound 720]
40.2 nM	16.58	667 nM	O=C(NCc1cc2nc(N3CCC4(CCC4)c4cccnc43)ccc2cn1)c1ccc2c(c1)S(=O)(=O)CCOC2 [Compound 723]
103 nM	11.84	1220 nM	O=C(NCc1cc2nc(N3CCc4cc(F)cnc43)ccc2cn1)c1ccc2c(c1)S(=O)(=O)CCOC2 [Compound 727]
12.3 nM	2.42	29.6 nM	Cc1cc(C(=O)NCc2cc3cc(-c4cccc(N5C[C@@H](C)O[C@@H](C)C5)n4)ccc3cn2)cc2c1COCCS2(=O)=O [Compound 728]
44.6 nM	42.98	1920 nM	O=C(NCc1cc2cc(N3CCOc4ccc(C5CC5)nc43)ccc2cn1)c1ccc2c(c1)S(=O)(=O)CCOC2 [Compound 729]
9.3 nM	9.97	92.5 nM	COc1cc(C)nc2c1CCCN2c1ccc2cnc(CNC(=O)c3ccc4c(c3)S(=O)(=O)CCOC4)cc2n1 [Compound 732]
6.3 nM	13.67	86.2 nM	Cc1cnc2c(c1)C1(CCN2c2ccc3cnc(CNC(=O)c4ccc5c(c4)S(=O)(=O)CCOC5)cc3n2)CC1 [Compound 734]
1140 nM	3.42	3900 nM	O=C(NCc1cc2nc(N3CCCc4cccc(Cl)c43)ccc2cn1)c1ccc2c(c1)S(=O)(=O)CCOC2 [Compound 736]
10.4 nM	21.91	227 nM	O=C(NCc1cc2nc(N3CCOc4cc(F)cnc43)ccc2cn1)c1ccc2c(c1)S(=O)(=O)CCOC2 [Compound 737]
12.7 nM	17.37	221 nM	O=C(NCc1cc2nc(N3CCOc4cc(C5CC5)ncc43)ccc2cn1)c1ccc2c(c1)S(=O)(=O)CCOC2 [Compound 739]
24 nM	19.92	478 nM	O=C(NCc1cc2nc(N3CCN(CC(F)F)c4cccnc43)ccc2cn1)c1ccc2c(c1)S(=O)(=O)CCOC2 [Compound 742]
27.5 nM	4.35	120 nM	Cc1ccnc2c1CCN2c1ccc2cnc(CNC(=O)c3ccc4c(c3)S(=O)(=O)CCOC4)cc2n1 [Compound 743]
12.1 nM	12.75	154 nM	Cc1cnc2c(c1)N(C1CC1)CCN2c1ccc2cnc(CNC(=O)c3ccc4c(c3)S(=O)(=O)CCOC4)cc2n1 [Compound 748]
36.2 nM	63.48	2300 nM	O=C(NCc1cc2nc(N3CCOc4cc(F)c(C5CC5)nc43)ccc2cn1)c1ccc2c(c1)S(=O)(=O)CCOC2 [Compound 751]
